This is an account of results in publication PMC11783400, “Assessment of Potential Drug–Drug Interactions for Novel Oral Melanocortin‐1 Receptor Agonist Dersimelagon” (Pharmacology Research & Perspectives, 2025).

One data set has as its target T1, CYP2D6 (Homo sapiens, UniProt P10635).
T1 construct: native enzyme in human liver microsomes
Put plainly: CYP activity inhibition in human liver microsomes. The format is biochemical. The note with it: read-out: IC50 (μM) / Direct inhibition. The text has this: CYP activity inhibition in human liver microsomes on CYP2D6
(In general: Liver microsomes are vesicles of endoplasmic reticulum, rich in cytochrome P450 enzymes.)

Another data set addresses T2, MATE1 (Homo sapiens, UniProt Q96FL8).
T2 construct: gene SLC47A1; expressed in HEK293 cells
T2 sequence (Q96FL8 1-570): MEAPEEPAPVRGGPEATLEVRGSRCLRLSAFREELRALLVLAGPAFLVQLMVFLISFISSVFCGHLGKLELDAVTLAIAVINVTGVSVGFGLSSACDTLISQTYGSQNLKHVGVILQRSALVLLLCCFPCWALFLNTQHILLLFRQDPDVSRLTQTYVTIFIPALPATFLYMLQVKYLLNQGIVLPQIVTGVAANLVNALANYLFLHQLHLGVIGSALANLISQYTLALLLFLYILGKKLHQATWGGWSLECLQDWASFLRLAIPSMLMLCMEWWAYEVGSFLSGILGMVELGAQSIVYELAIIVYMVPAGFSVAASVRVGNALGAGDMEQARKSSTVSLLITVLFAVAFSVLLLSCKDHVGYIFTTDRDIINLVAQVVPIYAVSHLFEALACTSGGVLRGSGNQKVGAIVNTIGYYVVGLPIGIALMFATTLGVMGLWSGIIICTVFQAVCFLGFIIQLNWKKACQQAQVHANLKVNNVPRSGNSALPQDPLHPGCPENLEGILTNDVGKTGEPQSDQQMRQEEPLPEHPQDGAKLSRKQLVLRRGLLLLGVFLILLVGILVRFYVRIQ
In words: uptake inhibition in HEK293 cells expressing the transporter. The data set is classed as cell-based. The text has this: uptake inhibition in HEK293 cells expressing the transporter on MATE1

The target in a further data set is T3, OAT1 (Homo sapiens, UniProt Q4U2R8).
T3 construct: gene SLC22A6; expressed in HEK293 cells
T3 sequence (Q4U2R8 1-563): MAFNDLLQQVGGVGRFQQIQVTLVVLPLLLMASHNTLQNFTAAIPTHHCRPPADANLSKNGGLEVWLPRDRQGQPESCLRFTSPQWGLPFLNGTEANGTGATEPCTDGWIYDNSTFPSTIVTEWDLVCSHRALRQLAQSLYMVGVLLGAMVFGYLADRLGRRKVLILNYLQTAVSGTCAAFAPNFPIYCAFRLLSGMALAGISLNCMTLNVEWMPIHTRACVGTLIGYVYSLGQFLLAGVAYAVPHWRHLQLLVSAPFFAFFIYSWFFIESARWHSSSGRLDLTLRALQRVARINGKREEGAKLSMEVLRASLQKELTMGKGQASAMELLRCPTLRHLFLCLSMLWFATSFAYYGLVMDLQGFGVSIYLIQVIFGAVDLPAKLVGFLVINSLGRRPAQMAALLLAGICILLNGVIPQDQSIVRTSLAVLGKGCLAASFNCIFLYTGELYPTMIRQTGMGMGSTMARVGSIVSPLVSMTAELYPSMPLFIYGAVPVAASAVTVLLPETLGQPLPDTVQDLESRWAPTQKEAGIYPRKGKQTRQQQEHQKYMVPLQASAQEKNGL
The data set is described as above. The data set is classed as cell-based. From the text:
uptake inhibition in HEK293 cells expressing the transporter on OAT1

T1 sequence (P10635 whole entry): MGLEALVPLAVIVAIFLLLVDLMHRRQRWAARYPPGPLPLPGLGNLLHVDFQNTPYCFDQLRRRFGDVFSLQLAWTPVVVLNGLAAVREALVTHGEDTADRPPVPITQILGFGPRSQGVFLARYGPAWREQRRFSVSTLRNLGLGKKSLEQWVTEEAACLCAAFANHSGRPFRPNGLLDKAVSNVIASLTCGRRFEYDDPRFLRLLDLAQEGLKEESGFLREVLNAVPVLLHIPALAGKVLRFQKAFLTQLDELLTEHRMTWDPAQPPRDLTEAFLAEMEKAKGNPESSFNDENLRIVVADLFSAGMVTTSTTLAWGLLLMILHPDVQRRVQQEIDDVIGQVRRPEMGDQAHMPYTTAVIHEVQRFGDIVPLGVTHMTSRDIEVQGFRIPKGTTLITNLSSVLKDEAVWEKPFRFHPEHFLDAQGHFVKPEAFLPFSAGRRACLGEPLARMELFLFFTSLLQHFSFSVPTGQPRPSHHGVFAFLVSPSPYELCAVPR

In the case of `COC[C@H]1CN(C(=O)[C@]2(F)CN(C3CCCC3)C[C@H]2c2ccc(OC)cc2)C[C@@H]1c1ccc(C(F)(F)F)cc1N1CCC(C(=O)O)CC1` [dersimelagon], the IC50 on CYP2D6 was over 100 µM; against MATE1 it was 5.64 µM; against OAT1 it was 71.2 µM.
